{"source": "paper PMC4282169", "about": "(Nature, 2014)", "target": "T1, BoGH5A (Bacteroides ovatus, UniProt A7LXT7)", "T1 sequence (A7LXT7 34-502 limits assumed)": "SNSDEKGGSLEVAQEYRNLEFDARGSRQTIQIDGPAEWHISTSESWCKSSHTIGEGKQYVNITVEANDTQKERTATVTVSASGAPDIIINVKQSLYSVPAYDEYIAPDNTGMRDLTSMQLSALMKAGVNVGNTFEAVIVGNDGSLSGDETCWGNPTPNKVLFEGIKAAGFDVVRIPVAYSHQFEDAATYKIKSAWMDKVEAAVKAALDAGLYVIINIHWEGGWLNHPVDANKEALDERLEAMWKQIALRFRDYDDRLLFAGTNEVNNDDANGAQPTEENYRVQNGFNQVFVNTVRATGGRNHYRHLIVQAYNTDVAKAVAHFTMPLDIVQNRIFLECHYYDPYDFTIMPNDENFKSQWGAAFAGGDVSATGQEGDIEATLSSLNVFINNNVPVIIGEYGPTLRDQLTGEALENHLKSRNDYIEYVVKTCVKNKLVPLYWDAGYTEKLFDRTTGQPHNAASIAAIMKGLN", "experiment": "2-chloro-4-nitrophenolate release, A405, continuous", "assay_type": "biochemical", "details": "read-out: Km (mM) ^‡; 37 °C, 50 mM buffer at or near pH optimum (6.0-7.0)", "data": [{"smiles": "O=[N+]([O-])c1ccc(O[C@@H]2O[C@H](CO)[C@@H](O[C@@H]3O[C@H](CO[C@H]4OC[C@@H](O)[C@H](O)[C@H]4O[C@@H]4O[C@H](CO)[C@H](O)[C@H](O)[C@H]4O)[C@@H](O[C@@H]4O[C@H](CO[C@H]5OC[C@@H](O)[C@H](O)[C@H]5O[C@@H]5O[C@H](CO)[C@H](O)[C@H](O)[C@H]5O)[C@@H](O[C@@H]5O[C@H](CO[C@H]6OC[C@@H](O)[C@H](O)[C@H]6O)[C@@H](O)[C@H](O)[C@H]5O)[C@H](O)[C@H]4O)[C@H](O)[C@H]3O)[C@H](O)[C@H]2O)c(Cl)c1", "note": "[XLLG-β-CNP]", "values": [{"measurement": "Km", "result": "0.145 ± 0.024", "unit": "mM"}]}]}
